A short description of series [1]: Background elimination and isomerization in the absence of antibody. As to conditions: for elimination product formed in the absence of antibody / isomerization of olefinic product under background reaction conditions: 15 percent aq DMSO, 100 mM CHES buffer; for isomerization of olefinic product under background reaction conditions: no antibody. It counts as physicochemical. The procedure: Reaction conditions: 15 percent aq DMSO, 100 mM CHES buffer, pH 9.0, 37° C.
(§1) Immunization with the KLH conjugate and generation of monoclonal antibodies were performed as described hereinafter. Twenty-six monoclonal antibodies specific for Compound 5 were assayed for catalysis. The rate of elimination of substrate Compound 1 to product Compounds 3 or 4 was assayed in the absence and presence of antibody at 37° C. Thus, a solution of antibody in 100 mM CHES buffer, pH 9.0 at 37° C., was treated with substrate Compound 1 in DMSO to provide a final solution containing […] in 15 percent aqueous DMSO, 100 mM CHES, pH 9.0. All reaction rates were determined by analytical reverse phase HPLC (Vydac-C18, 41 percent acetonitrile in H2 O/0.1 percent trifluoroacetic acid) by measuring product formation relative to 4-methyl-3-nitroanisole as a standard.

For series [2], the system named is antibody 1D4. In words: Inhibition of 1D4 catalytic activity by hapten. The settings on record: addition of hapten; substrate Compound 1. The series is classed as biochemical, mouse. The method, then: as §1
The initial rate of syn elimination by 1D4, when measured as a function of substrate Compound 1 concentrations followed Michaelis-Menten kinetics.

“Also recorded” adds a separate entry of the source.

This note sets out measurements from patent publication US5478728A, “Process for antibody combining site-catalyzed SYN elimination in the formation of a CIS olefin” (The Scripps Research Institute, priority 1994, dated 1995).

Turning to `C[C@@H](C(=O)c1ccccc1)[C@@H](F)c1ccccc1` (relative stereo) [Compound 1], the “elimination product formed in the absence of antibody” value in series [1] (pH 9.0, 37° C.) is recorded as “exclusively the trans olefin Compound 3; also recorded: only product Compound 3 was generated”. Further, in series [1] (absence of antibody, 15 percent aqueous DMSO, 100 mM CHES, pH 9.0, 37° C.), the “first order rate constant of elimination to Compound 3” value stood at 0.000248 min⁻¹. In addition, the “formation of cis product Compound 4 in the absence of antibody” value in series [1] (reaction conditions pH 9.0, 37° C.) is listed as “immeasurably slow”. `C[C@@H](C(=O)c1ccccc1)[C@H](F)c1ccccc1` (relative stereo) [Compound 2]: the “elimination product formed in the absence of antibody” value in series [1] (pH 9.0, 37° C.) is on record as “eliminates entirely to the trans olefin Compound 3”.

On to `N[C@@]1(C(=O)c2ccccc2)[C@@H]2C[C@@H](C[C@H]2OC(=O)CCC(=O)O)[C@@H]1c1ccccc1` (relative stereo) [Compound 5, (1R*,2S*,4R*,5S*,6S*)-6-Amino-6-benzoyl-5-phenylbicyclo[2.2.1]heptane-2-hemisuccinate], for which, in series [2], the “inhibition of the catalytic activity of 1D4” value is “competitively inhibited”.

As to `C/C(=C\c1ccccc1)C(=O)c1ccccc1` [Compound 3], the “isomerization of olefinic product under background reaction conditions” value in series [1] (pH 9.0, 37° C.) is reported as “No isomerization”.

On to `C/C(=C/c1ccccc1)C(=O)c1ccccc1` [Compound 4], for which, in series [1] (pH 9.0, 37° C.), the “isomerization of olefinic product under background reaction conditions” value is on record as “No isomerization”.
